The results in this text go back to patent US6582713B2, “Compositions and methods for promoting wound healing” (Univ. of Colorado - Colorado Springs, priority 2000, dated 2003).

Several values for one entry are separate records, joined by “and”; a condition that tells them apart may be missing. Equal values may be shown once. Marks after values point to notes of the source that are not given here. A value given as a limit tells only on which side of the number the result lay.

The test system of one data set is unsealed wound. As to the kind of experiment: Effect of three day insulin treatment on unsealed wound in vivo. Details: species or system mice. The note with it: 100 micro liters applied to unsealed incision, photographs daily for one week. The source says: Six mice were anesthetized with avetin Q 15-18 micro liters per gram body weight. An area on the back of the neck was swabbed with alcohol and shaved. A single vertical incision was made with scissors. One hundred micro liters of insulin was applied to three mice and 100 micro liters of water was applied to the other three. Photographs of the wounds were taken on a daily basis for one week.

The nature of data set [1]: Blood glucose level after treatment injected into incision sealed with cyanoacrylate. The note with it: for Blood Glucose Level: individual mice. The data set is classed as in vivo, mice. The method, then:
Twelve mice were used in the study. Each mouses' blood glucose level was tested at the start of the study. The mice were then weighted and anesthetized. The back of the neck was shaved and a single incision was made. The incision was then sealed with cyanoacrylate polymer which was applied and allowed to set for 1½ minutes. The treatment (glucose, water, insulin, or insulin plus glucose) as described above were injected into the incision. […] On day 1, blood glucose was again measured and the wound was photographed. This was repeated on days 3, 5, and 7. Mouse numbers 1, 2, and 3 received glucose treatment. Mouse numbers 4, 5, and 6 received water (control). Mouse numbers 7, 8, and 9 received insulin plus glucose. Mouse numbers 10, 11, and 12 received insulin.

Consider insulin, for which the “wound healing compared with water” value in the data set on unsealed wound is given as “More complete wound healing”. In addition, the “Blood Glucose Level” value in data set [1] (0 Hr (start of study, before treatment)) was 89 mg/dL and 104 mg/dL and 118 mg/dL; in data set [1] (0.5 Hr, incision sealed with cyanoacrylate) it was 58 mg/dL and 36 mg/dL and 46 mg/dL; in data set [1] (3.0 Hr., incision sealed with cyanoacrylate) it was under 25 mg/dL; in data set [1] (21 Hr., incision sealed with cyanoacrylate) it was <25 mg/dL (2×) and 113 mg/dL; in data set [1] (69 Hr., incision sealed with cyanoacrylate), <25* mg/dL and 109 mg/dL. Also, the death of mouse entry in data set [1] (by 69 Hr., individual mouse) is “Died”. Further, the “effect on levels of blood glucose compared with control water treatment” value in data set [1] (summary of Table 1) is reported as “dramatic effects”.
